These results are taken from US11760754B2, “Heterocyclic mitochondrial activity inhibitors and uses thereof” (UNIVERSITÉ DE MONTRÉAL, priority 2017, dated 2023).

pEC50: −log10 of the molar value. Some results are limits rather than exact numbers.

One assay concerns OCI-AML3 cells. Put plainly: OCI-AML3 cell growth inhibition, dose-response viability assay (CellTiterGlo). The note with it: for pEC50: Homo sapiens, OCI-AML-3, 144 h, read-out: AML-3 EC50; for sensitivity of OCI-AML3 relative to OCI-AML5: dose-response curves OCI-AML3 and OCI-AML5. The class given is cell-based. How it is done: Cell dose-response viability assays. […] In the initial screen, compounds were added to seeded cells in serial dilutions (10 dilutions, 1:3, starting from […] 20 μM), in duplicates.
(§1) The potency of the compounds of Example 6 at inhibiting OCI-AML3 cell growth was tested using a procedure similar to that described for Mutritinib in Example 1. […] Murine MLL-AF9 leukemia cells (female cells) were generated by infection with VSV-G-pseudotyped MSCV MLL-AF9 IRES Puro (subcloned from a construct by Frédéric Barabé, Laval U, Quebec, QC, Canada).
(§2) Compounds were added to seeded cells in serial dilutions from 10 μM to 0.5 nM, in duplicates or quadruplicates.

Another assay relates to MLL-AF9 cells. Put plainly: MLL-AF9 leukemia cell growth inhibition, dose-response viability assay (CellTiterGlo). The class given is cell-based, murine. The note with it: Mus musculus, MLL-AF9, 120 h, read-out: MLL-AF9 EC50. How it is done: as §1, §2

Regarding `Fc1ccc2[nH]c(-c3nc(COc4ccc(CCCCn5ccnn5)cc4)co3)cc2c1` [Compound 73], the results for the pEC50 with OCI-AML3 cells and in the assay on MLL-AF9 cells were 6.30 to 7.00 and > 7.30, respectively.

Turning to `OC(CCCn1ccnn1)c1ccc(OCc2coc(/C=C/c3ccc(C(F)(F)F)cc3)n2)cc1` (centres unmarked) [Compound 17, (E)-4-(1H-1,2,3-triazol-1-yl)-1-(4-((2-(4-(trifluoromethyl)styryl)oxazol-4-yl)methoxy)phenyl)butan-1-ol], the values for the pEC50 with OCI-AML3 cells and in the assay on MLL-AF9 cells were 6.30 to 7.00 and 7.00 to 7.30, respectively.

For the compound `Fc1cc(C(F)(F)F)ccc1/C=C/c1nc(COc2ccc(OCCCn3ccnn3)cc2)co1` [Compound 109, (E)-4-((4-(3-(1H-1,2,3-triazol-1-yl)propoxy)phenoxy)methyl)-2-(2-fluoro-4-(trifluoromethyl)styryl)oxazole], the pEC50 is 6.00 to 6.30 in the assay with OCI-AML3 cells and 6.30 to 7.00 in the assay on MLL-AF9 cells.

Regarding `Fc1ccc2sc(-c3nc(COc4ccc(CCCCn5ccnn5)cc4)co3)cc2c1` [Compound 113, 4-((4-(4-(1H-1,2,3-triazol-1-yl)butyl)phenoxy)methyl)-2-(5-fluorobenzo[b]thiophen-2-yl)oxazole], the pEC50 is 6.00 to 6.30 in the assay with OCI-AML3 cells and 6.30 to 7.00 in the assay with MLL-AF9 cells.

Regarding `NC(=O)c1ccc(/C=C/c2nc(COc3ccc(CCCCn4ccnn4)cc3)co2)cc1` [Compound 63, (E)-4-(2-(4-((4-(4-(1H-1,2,3-triazol-1-yl)butyl)phenoxy)methyl)oxazol-2-yl)vinyl)benzamide], the values for the pEC50 in the assay with OCI-AML3 cells and with MLL-AF9 cells were 6.00 to 6.30 and 5.00 to 6.00, respectively.

Take `Fc1cc(C(F)(F)F)ccc1/C=C/c1nc(COc2ccc(CCCCc3cccnc3)cc2)co1` [Compound 102, (E)-2-(2-fluoro-4-(trifluoromethyl)styryl)-4-((4-(4-(pyridin-3-yl)butyl)phenoxy)methyl)oxazole]: the pEC50 in the assay on OCI-AML3 cells and in the assay with MLL-AF9 cells was 6.30 to 7.00 throughout.

`O=S1(=O)CCN(Cc2cn(CCCCc3ccc(OCc4coc(/C=C/c5ccc(C(F)(F)F)cc5)n4)cc3)nn2)CC1` [Compound 10, (E)-4-((1-(4-(4-((2-(4-(trifluoromethyl)styryl)oxazol-4-yl)methoxy)phenyl)butyl)-1H-1,2,3-triazol-4-yl)methyl)thiomorpholine 1,1-dioxide]: the pEC50 is 6.30 to 7.00 in the assay with OCI-AML3 cells and > 7.30 with MLL-AF9 cells.

Regarding `Fc1cc(C(F)(F)F)ccc1/C=C/c1nc(COc2ccc(CCCCn3cnnc3)cc2)co1` [Compound 135, (E)-4-((4-(4-(4H-1,2,4-triazol-4-yl)butyl)phenoxy)methyl)-2-(2-fluoro-4-(trifluoromethyl)styryl)oxazole], the pEC50 in the assay with MLL-AF9 cells was 6.00 to 6.30.

Consider `Fc1cc(C(F)(F)F)ccc1/C=C/c1nc(COc2ccc(CCCn3ccnn3)cc2)co1` [Compound 105, (E)-4-((4-(3-(1H-1,2,3-triazol-1-yl)propyl)phenoxy)methyl)-2-(2-fluoro-4-(trifluoromethyl)styryl)oxazole], for which the pEC50 with OCI-AML3 cells is 6.30 to 7.00; with MLL-AF9 cells, 6.00 to 6.30.

On to `Cc1ncn(CCCCc2ccc(OCc3coc(/C=C/c4ccc(C(F)(F)F)cc4F)n3)cc2)n1` [Compound 93, (E)-2-(2-fluoro-4-(trifluoromethyl)styryl)-4-((4-(4-(3-methyl-1H-1,2,4-triazol-1-yl)butyl)phenoxy)methyl)oxazole], for which the negative logarithm of the EC50 (pEC50) in the assay with OCI-AML3 cells was 5.00 to 6.00; in the assay on MLL-AF9 cells, 6.00 to 6.30.

For `Fc1cc(C(F)(F)F)ccc1/C=C/c1nc(COc2ccc(CCCCn3ccnn3)cc2)cs1` [Compound 131, (E)-4-((4-(4-(1H-1,2,3-triazol-1-yl)butyl)phenoxy)methyl)-2-(2-fluoro-4-(trifluoromethyl)styryl)thiazole], the pEC50 in the assay on OCI-AML3 cells and in the assay on MLL-AF9 cells was 6.30 to 7.00 each time.

On to `CN(C)c1cccc2c(S(=O)(=O)NCCc3cn(CCCCc4ccc(OCc5coc(/C=C/c6ccc(C(F)(F)F)cc6)n5)cc4)nn3)cccc12` [Compound 31, (E)-5-(dimethylamino)-N-(2-(1-(4-(4-((2-(4-(trifluoromethyl)styryl)oxazol-4-yl)methoxy)phenyl)butyl)-1H-1,2,3-triazol-4-yl)ethyl)naphthalene-1-sulfonamide], for which the values for the pEC50 in the assay on OCI-AML3 cells and in the assay with MLL-AF9 cells were 5.00 to 6.00 and 6.00 to 6.30, respectively.

`Fc1cccnc1/C=C/c1nc(COc2ccc(CCCCn3ccnn3)cc2)co1` [Compound 85, (E)-4-((4-(4-(1H-1,2,3-triazol-1-yl)butyl)phenoxy)methyl)-2-(2-(3-fluoropyridin-2-yl)vinyl)oxazole]: the pEC50 in the assay with OCI-AML3 cells and in the assay on MLL-AF9 cells was 5.00 to 6.00 each time.

Regarding `FC(F)(F)Oc1ccc(/C=C/c2nc(COc3ccc(CCCCn4ccnn4)cc3)co2)cc1` [Compound 2], the pEC50 with OCI-AML3 cells and in the assay with MLL-AF9 cells was 6.30 to 7.00 throughout.

As to `O=C(Nc1ccc(CCCCO)cc1)c1coc(/C=C/c2ccc(C(F)(F)F)cc2)n1` [Compound 29, (E)-N-(4-(4-hydroxybutyl)phenyl)-2-(4-(trifluoromethyl)styryl)oxazole-4-carboxamide], the pEC50 in the assay on OCI-AML3 cells is 5.00 to 6.00; in the assay with MLL-AF9 cells it was 6.30 to 7.00.

Take `O=C(NC1CCCC1)OCCc1cn(CCCCc2ccc(OCc3coc(/C=C/c4ccc(C(F)(F)F)cc4F)n3)cc2)nn1` [Compound 97, (E)-2-(1-(4-(4-((2-(2-fluoro-4-(trifluoromethyl)styryl)oxazol-4-yl)methoxy)phenyl)butyl)-1H-1,2,3-triazol-4-yl)ethyl cyclopentylcarbamate]: the pEC50 in the assay with OCI-AML3 cells and in the assay with MLL-AF9 cells was 6.30 to 7.00 in each case.

As to `CCN(CC)C(=O)OCCCCc1ccc(OCc2coc(/C=C/c3ccc(C(F)(F)F)cc3)n2)cc1` [Compound 34, (E)-4-(4-((2-(4-(trifluoromethyl)styryl)oxazol-4-yl)methoxy)phenyl)butyl diethylcarbamate], the pEC50 in the assay with OCI-AML3 cells and with MLL-AF9 cells was 5.00 to 6.00 in each case.

In the case of `CN(C)C(=O)OCCCCc1ccc(OCc2coc(/C=C/c3ccc(C(F)(F)F)cc3)n2)cc1` [Compound 36, (E)-4-(4-((2-(4-(trifluoromethyl)styryl)oxazol-4-yl)methoxy)phenyl)butyl dimethylcarbamate], the pEC50 in the assay on OCI-AML3 cells and with MLL-AF9 cells was 5.00 to 6.00 in each case.

Regarding `Clc1ccccc1/C=C/c1nc(COc2ccc(CCCCn3ccnn3)cc2)co1` [Compound 118, (E)-4-((4-(4-(1H-1,2,3-triazol-1-yl)butyl)phenoxy)methyl)-2-(2-chlorostyryl)oxazole], the pEC50 with OCI-AML3 cells and in the assay with MLL-AF9 cells was 6.30 to 7.00 each time.

Turning to `OC(CCCn1ccnn1)c1ccc(OCc2coc(/C=C/c3ccc(OC(F)(F)F)cc3)n2)cc1` (centres unmarked) [Compound 19, (E)-4-(1H-1,2,3-triazol-1-yl)-1-(4-((2-(4-(trifluoromethoxy)styryl)oxazol-4-yl)methoxy)phenyl)butan-1-ol], the pEC50 in the assay on OCI-AML3 cells and with MLL-AF9 cells was 6.30 to 7.00 in each case.

With `C#CCNC(=O)c1ccc(/C=C/c2nc(COc3ccc(CCCCn4ccnn4)cc3)co2)cc1` [Compound 59, (E)-4-(2-(4-((4-(4-(1H-1,2,3-triazol-1-yl)butyl)phenoxy)methyl)oxazol-2-yl)vinyl)-N-(prop-2-yn-1-yl)benzamide], the values for the pEC50 in the assay on OCI-AML3 cells and in the assay with MLL-AF9 cells were 6.00 to 6.30 and 6.30 to 7.00, respectively.

On to `Fc1ccccc1/C=C/c1nc(COc2ccc(CCCCn3ccnn3)cc2)co1` [Compound 41, (E)-4-((4-(4-(1H-1,2,3-triazol-1-yl)butyl)phenoxy)methyl)-2-(2-fluorostyryl)oxazole], for which the pEC50 in the assay on OCI-AML3 cells and in the assay on MLL-AF9 cells was 6.30 to 7.00 in each case.

In the case of `Fc1cc(C(F)(F)F)ccc1/C=C/c1nc(/C=C/c2ccc(CCCCn3ccnn3)cc2)co1` [Compound 111, 4-((E)-4-(4-(1H-1,2,3-triazol-1-yl)butyl)styryl)-2-((E)-2-fluoro-4-(trifluoromethyl)styryl) oxazole], the negative logarithm of the EC50 (pEC50) in the assay with OCI-AML3 cells is 5.00 to 6.00; with MLL-AF9 cells, 6.00 to 6.30.

Turning to `CN(C)C(=O)OCCC(=O)NCCCCc1ccc(OCc2coc(/C=C/c3ccc(C(F)(F)F)cc3)n2)cc1` [Compound 87, (E)-3-oxo-3-((4-(4-((2-(4-(trifluoromethyl)styryl)oxazol-4-yl)methoxy)phenyl)butyl)amino)propyl dimethylcarbamate], the pEC50 with OCI-AML3 cells was 6.00 to 6.30; in the assay on MLL-AF9 cells, 6.30 to 7.00.

With `O=CNCCCCc1ccc(OCc2coc(/C=C/c3ccc(C(F)(F)F)cc3F)n2)cc1` [Compound 136, (E)-N-(4-(4-((2-(2-fluoro-4-(trifluoromethyl)styryl)oxazol-4-yl)methoxy)phenyl)butyl)formamide], the pEC50 with MLL-AF9 cells was 6.30 to 7.00.

As for `COc1cc2c(cc1OC)[C@@H]1C(=O)c3ccc4c(c3O[C@@H]1CO2)C=CC(C)(C)O4` [Deguelin, reference compound], in the assay with OCI-AML3 cells, the “sensitivity of OCI-AML3 relative to OCI-AML5” value was “more sensitive than OCI-AML5”.

Turning to `CNC(=O)CN1CCC(Oc2cc3c(Nc4cccc(Cl)c4F)ncnc3cc2OC)CC1` [Sapitinib, reference compound], in the assay with OCI-AML3 cells (OCI-AML3 cells), the “OCI-AML3 cells sensitive to the compound (dose response)” value was “not”.

For `C=C(C)[C@H]1Cc2c(ccc3c2O[C@@H]2COc4cc(OC)c(OC)cc4[C@@H]2C3=O)O1` [Rotenone, reference compound], the “sensitivity of OCI-AML3 relative to OCI-AML5” value with OCI-AML3 cells is listed as “more sensitive than OCI-AML5”.

On to `CC[C@H]1/C=C/C=C/C[C@@H](C)[C@H](O)[C@@](C)(O)C(=O)[C@@H](C)[C@H](O)[C@@H](C)C(=O)[C@@H](C)[C@H](O)[C@@H](C)/C=C/C(=O)O[C@@H]2[C@H](C)[C@H](CC1)O[C@]1(CC[C@H](C)[C@H](C[C@@H](C)O)O1)[C@H]2C` [Oligomycin, reference compound], for which the “sensitivity of OCI-AML3 relative to OCI-AML5” value in the assay with OCI-AML3 cells is recorded as “more sensitive than OCI-AML5”.

`O=S1(=O)CCN(CCCCc2ccc(OCc3coc(/C=C/c4ccc(C(F)(F)F)cc4F)n3)cc2)CC1` [Compound 137, (E)-4-(4-(4-((2-(2-fluoro-4-(trifluoromethyl)styryl)oxazol-4-yl)methoxy)phenyl)butyl)thiomorpholine 1,1-dioxide]: in the assay with MLL-AF9 cells, the pEC50 was 6.00 to 6.30.
